Source: US11780893B2, “Kv1.3 blockers” (Zealand Pharma A/S, priority 2019, dated 2023)
Where two headings read alike, the source gives them in different places. Bridge positions count the residues as written; N and C are the ends. Square brackets hold non-standard residues; d marks the D form. Peptide text beside a SMILES is read from it. Nle = CCCC[C@H](N)C(=O)O

Tests used:
[1] = biological target: T1, human Kv1.3 voltage-gated K+ channel (Homo sapiens, UniProt P22001); assay: cell-based; settings: inhibition of thallium flux, CHO-DUKX cells with human Kv1.3; read-out: IC50
T1 construct: host or cells: CHO-DUKX
T1 sequence (P22001 whole entry): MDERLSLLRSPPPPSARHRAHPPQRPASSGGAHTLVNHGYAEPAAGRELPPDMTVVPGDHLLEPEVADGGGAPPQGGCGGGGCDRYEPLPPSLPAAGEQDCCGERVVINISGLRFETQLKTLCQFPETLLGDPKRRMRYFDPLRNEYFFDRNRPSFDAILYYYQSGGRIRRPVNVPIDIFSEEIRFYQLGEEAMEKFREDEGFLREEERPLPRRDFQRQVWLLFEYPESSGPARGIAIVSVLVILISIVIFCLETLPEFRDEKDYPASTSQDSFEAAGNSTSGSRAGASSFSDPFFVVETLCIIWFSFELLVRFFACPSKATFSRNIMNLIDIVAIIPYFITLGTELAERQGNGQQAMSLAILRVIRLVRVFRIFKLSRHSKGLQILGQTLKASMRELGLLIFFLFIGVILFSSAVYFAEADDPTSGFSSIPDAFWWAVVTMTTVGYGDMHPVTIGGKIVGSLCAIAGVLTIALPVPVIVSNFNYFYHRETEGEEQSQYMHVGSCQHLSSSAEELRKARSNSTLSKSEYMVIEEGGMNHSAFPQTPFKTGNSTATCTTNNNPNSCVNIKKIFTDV

Rat whole blood = Rat whole blood (Rattus norvegicus, UniProt P15384)
Chain of Rat whole blood (P15384 whole entry): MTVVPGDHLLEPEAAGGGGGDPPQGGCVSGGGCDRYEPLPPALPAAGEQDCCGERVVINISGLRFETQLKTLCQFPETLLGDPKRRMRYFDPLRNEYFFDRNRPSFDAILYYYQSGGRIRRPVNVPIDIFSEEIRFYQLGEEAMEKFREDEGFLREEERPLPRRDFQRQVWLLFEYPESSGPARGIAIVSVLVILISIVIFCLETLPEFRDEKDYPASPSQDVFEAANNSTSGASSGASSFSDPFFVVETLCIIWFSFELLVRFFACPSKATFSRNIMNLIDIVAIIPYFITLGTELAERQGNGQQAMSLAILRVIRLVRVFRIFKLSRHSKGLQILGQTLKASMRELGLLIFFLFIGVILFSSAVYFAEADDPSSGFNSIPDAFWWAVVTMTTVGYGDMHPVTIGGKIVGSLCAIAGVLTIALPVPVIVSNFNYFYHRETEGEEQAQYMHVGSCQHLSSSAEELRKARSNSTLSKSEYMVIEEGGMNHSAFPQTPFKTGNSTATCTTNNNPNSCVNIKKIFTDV

[2] = inhibition of IL-17A release, thapsigargin, 24 Hr, at least 2 replicates

Molecule	IC50 [1]	IC50 (Rat whole blood)	IC50 (Rat whole blood; [2])
CC[C@H](C)[C@@H]1NC(=O)[C@H](C)NC(=O)[C@H](CCCCN)NC(=O)[C@H](CC(C)C)NC(=O)[C@@H]2CSSC[C@@H](C(=O)N[C@@H](Cc3ccc(O)cc3)C(=O)N3CCC[C@H]3C(=O)N[C@@H](CCCNC(=N)N)C(N)=O)NC(=O)[C@H](CCCCN)NC(=O)[C@@H]3CSSC[C@H](NC(=O)[C@H](CCC(=O)O)NC(=O)[C@H](C(C)C)NC(=O)[C@H](CO)NC(=O)[C@H](C)NC(=O)[C@H](CO)NC(=O)[C@@H](NC(=O)[C@H](CCCNC(=N)N)NC(=O)[C@H](CCSC)NC(=O)[C@H](CC(=O)O)NC(=O)[C@H](CCSC)NC(=O)[C@@H](N)CC(N)=O)CSSC[C@H](NC(=O)[C@H](CCCCN)NC(=O)CNC(=O)[C@H](Cc4ccccc4)NC(=O)[C@H]([C@@H](C)CC)NC(=O)[C@H](CO)NC(=O)[C@H](Cc4c[nH]cn4)NC1=O)C(=O)N[C@@H](CCSC)C(=O)N[C@@H](CC(N)=O)C(=O)N[C@@H](CCCCN)C(=O)N[C@@H](CCCCN)C(=O)N3)C(=O)N[C@@H](CCCCN)C(=O)N[C@@H](CCC(N)=O)C(=O)N[C@@H](CCCCN)C(=O)N2 [Compound 33] (H-NMDMRCSASVECKQKCLKAIHSIFGKCMNKKCKCYPR-NH2; disulfide 6-27, 12-32, 16-34)	0.14 nM	≤ 1 nM	0.7 nM
CC[C@H](C)[C@@H]1NC(=O)[C@H](C)NC(=O)[C@H](CCCCN)NC(=O)[C@H](CC(C)C)NC(=O)[C@@H]2CSSC[C@@H](C(=O)N[C@@H](Cc3ccc(O)cc3)C(=O)N3CCC[C@H]3C(=O)N[C@@H](CCCNC(=N)N)C(N)=O)NC(=O)[C@H](C(C)C)NC(=O)[C@@H]3CSSC[C@H](NC(=O)[C@H](CCC(=O)O)NC(=O)[C@H](C(C)C)NC(=O)[C@H](CO)NC(=O)[C@H](C)NC(=O)[C@H](CO)NC(=O)[C@@H](NC(=O)[C@H](CCCNC(=N)N)NC(=O)[C@H](CCSC)NC(=O)[C@H](CC(=O)O)NC(=O)[C@H](CCSC)NC(=O)[C@@H](N)CC(N)=O)CSSC[C@H](NC(=O)[C@H](CCCCN)NC(=O)CNC(=O)[C@H](Cc4ccccc4)NC(=O)[C@H]([C@@H](C)CC)NC(=O)[C@H](CO)NC(=O)CNC1=O)C(=O)N[C@@H](CCSC)C(=O)N[C@@H](CC(N)=O)C(=O)N[C@@H](CCCCN)C(=O)N[C@@H](CCCCN)C(=O)N3)C(=O)N[C@@H](CCCCN)C(=O)N[C@@H](CCC(N)=O)C(=O)N[C@@H](CCCCN)C(=O)N2 [Compound 38] (H-NMDMRCSASVECKQKCLKAIGSIFGKCMNKKCVCYPR-NH2; disulfide 6-27, 12-32, 16-34)	0.46 nM		2.8 nM
CCCC[C@@H]1NC(=O)[C@@H]2CSSC[C@H](NC(=O)[C@H](CCCNC(=N)N)NC(=O)[C@H](CCCC)NC(=O)[C@H](CC(=O)O)NC(=O)[C@H](CCCC)NC(=O)[C@@H](N)CC(N)=O)C(=O)N[C@@H](CO)C(=O)N[C@@H](C)C(=O)N[C@@H](CO)C(=O)N[C@@H](C(C)C)C(=O)N[C@@H](CCC(=O)O)C(=O)N[C@H]3CSSC[C@H](NC(=O)[C@H](CCCCN)NC(=O)[C@H](CCCCN)NC(=O)[C@H](CC(N)=O)NC1=O)C(=O)N[C@@H](CCCCN)C(=O)N[C@H](C(=O)N[C@@H](Cc1ccc(O)cc1)C(=O)N1CCC[C@H]1C(=O)N[C@@H](CCCNC(=N)N)C(N)=O)CSSC[C@H](NC(=O)[C@H](CCCCN)NC(=O)[C@H](CCC(N)=O)NC(=O)[C@H](CCC(=O)O)NC3=O)C(=O)N[C@@H](CC(C)C)C(=O)N[C@@H](CCCCN)C(=O)N[C@@H](C)C(=O)N[C@@H]([C@@H](C)CC)C(=O)NCC(=O)N[C@@H](CO)C(=O)N[C@@H]([C@@H](C)CC)C(=O)N[C@@H](Cc1ccccc1)C(=O)NCC(=O)N[C@@H](CCCCN)C(=O)N2 [Compound 43] (H-N[Nle]D[Nle]RCSASVECEQKCLKAIGSIFGKC[Nle]NKKCKCYPR-NH2; disulfide 6-27, 12-32, 16-34)	0.5 nM	≤ 1 nM	0.99 nM
CCCC[C@@H]1NC(=O)[C@@H]2CSSC[C@H](NC(=O)[C@H](CCCNC(=N)N)NC(=O)[C@H](CCCC)NC(=O)[C@H](CC(=O)O)NC(=O)[C@H](CCCC)NC(=O)[C@@H](N)CC(N)=O)C(=O)N[C@@H](CO)C(=O)N[C@@H](C)C(=O)N[C@@H](CO)C(=O)N[C@@H](C(C)C)C(=O)N[C@@H](CCC(=O)O)C(=O)N[C@H]3CSSC[C@H](NC(=O)[C@H](CCCCN)NC(=O)[C@H](CCCCN)NC(=O)[C@H](CC(N)=O)NC1=O)C(=O)N[C@@H](CCCCN)C(=O)N[C@H](C(=O)N[C@@H](Cc1ccc(O)cc1)C(=O)N1CCC[C@H]1C(=O)N[C@@H](CCCNC(=N)N)C(N)=O)CSSC[C@H](NC(=O)[C@H](CCCCN)NC(=O)[C@H](CCC(N)=O)NC(=O)[C@H](CCC(N)=O)NC3=O)C(=O)N[C@@H](CC(C)C)C(=O)N[C@@H](CCCCN)C(=O)N[C@@H](C)C(=O)N[C@@H]([C@@H](C)CC)C(=O)NCC(=O)N[C@@H](CO)C(=O)N[C@@H]([C@@H](C)CC)C(=O)N[C@@H](Cc1ccccc1)C(=O)NCC(=O)N[C@@H](CCCCN)C(=O)N2 [Compound 44] (H-N[Nle]D[Nle]RCSASVECQQKCLKAIGSIFGKC[Nle]NKKCKCYPR-NH2; disulfide 6-27, 12-32, 16-34)	0.13 nM		1.1 nM
CCCC[C@H](NC(=O)[C@H](CC(=O)O)NC(=O)[C@H](CCCC)NC(=O)[C@@H](N)CO)C(=O)N[C@@H](CCCNC(=N)N)C(=O)N[C@H]1CSSC[C@@H]2NC(=O)[C@H](CCCCN)NC(=O)CNC(=O)[C@H](Cc3ccccc3)NC(=O)[C@H]([C@@H](C)CC)NC(=O)[C@H](CO)NC(=O)CNC(=O)[C@H]([C@@H](C)CC)NC(=O)[C@H](C)NC(=O)[C@H](CCCCN)NC(=O)[C@H](CC(C)C)NC(=O)[C@@H]3CSSC[C@@H](C(=O)N[C@@H](Cc4ccc(O)cc4)C(=O)N4CCC[C@H]4C(=O)N[C@@H](CCCNC(=N)N)C(N)=O)NC(=O)[C@H](CCCNC(=N)N)NC(=O)[C@H](CSSC[C@H](NC(=O)[C@H](CCC(=O)O)NC(=O)[C@H](C(C)C)NC(=O)[C@H](CO)NC(=O)[C@H](C)NC(=O)[C@H](CO)NC1=O)C(=O)N[C@@H](CCCCN)C(=O)N[C@@H](CCC(N)=O)C(=O)N[C@@H](CCCCN)C(=O)N3)NC(=O)[C@H](CCCCN)NC(=O)[C@H](CCCCN)NC(=O)[C@H](CC(N)=O)NC(=O)[C@H](CCSC)NC2=O [Compound 75]		≤ 1 nM	
CCCC[C@H](NC(=O)[C@@H]1CCCN1)C(=O)N[C@@H](CCC(=O)O)C(=O)N[C@@H](CCCC)C(=O)N[C@@H](CCCNC(=N)N)C(=O)N[C@H]1CSSC[C@@H]2NC(=O)[C@H](CCCCN)NC(=O)CNC(=O)[C@H](Cc3ccccc3)NC(=O)[C@H]([C@@H](C)CC)NC(=O)[C@H](CO)NC(=O)CNC(=O)[C@H]([C@@H](C)CC)NC(=O)[C@H](C)NC(=O)[C@H](C)NC(=O)[C@H](CC(C)C)NC(=O)[C@@H]3CSSC[C@@H](C(=O)N[C@@H](Cc4ccc(O)cc4)C(=O)N4CCC[C@H]4C(=O)N[C@@H](CCCNC(=N)N)C(=O)O)NC(=O)[C@H](CCCCN)NC(=O)[C@H](CSSC[C@H](NC(=O)[C@H](CCC(=O)O)NC(=O)[C@H](C(C)C)NC(=O)[C@H](CO)NC(=O)[C@H](C)NC(=O)[C@H](Cc4ccccc4)NC1=O)C(=O)N[C@@H](CCCCN)C(=O)N[C@@H](CCC(N)=O)C(=O)N[C@@H](CCCCN)C(=O)N3)NC(=O)[C@H](CCCCN)NC(=O)[C@H](CCCCN)NC(=O)[C@H](CC(N)=O)NC(=O)[C@H](CCCC)NC2=O [Compound 143] (H-P[Nle]E[Nle]RCFASVECKQKCLAAIGSIFGKC[Nle]NKKCKCYPR-OH; disulfide 6-27, 12-32, 16-34)	0.316 nM		
CCCC[C@H](NC(=O)[C@@H]1CCCN1)C(=O)N[C@@H](CCC(=O)O)C(=O)N[C@@H](CCCC)C(=O)N[C@@H](CCCNC(=N)N)C(=O)N[C@H]1CSSC[C@@H]2NC(=O)[C@H](CCCCN)NC(=O)CNC(=O)[C@H](Cc3ccccc3)NC(=O)[C@H]([C@@H](C)CC)NC(=O)[C@H](CO)NC(=O)CNC(=O)[C@H]([C@@H](C)CC)NC(=O)[C@H](C)NC(=O)[C@H](C)NC(=O)[C@H](CC(C)C)NC(=O)[C@@H]3CSSC[C@@H](C(=O)N[C@@H](Cc4ccc(O)cc4)C(=O)N4CCC[C@H]4C(=O)N[C@@H](CCCNC(=N)N)C(=O)O)NC(=O)[C@H](CCCCN)NC(=O)[C@H](CSSC[C@H](NC(=O)[C@H](CCC(=O)O)NC(=O)[C@H](C(C)C)NC(=O)[C@H](CO)NC(=O)[C@H](Cc4ccc(O)cc4)NC(=O)[C@H](CO)NC1=O)C(=O)N[C@@H](CCCCN)C(=O)N[C@@H](CCC(N)=O)C(=O)N[C@@H](CCCCN)C(=O)N3)NC(=O)[C@H](CCCCN)NC(=O)[C@H](CCCCN)NC(=O)[C@H](CC(N)=O)NC(=O)[C@H](CCCC)NC2=O [Compound 144] (H-P[Nle]E[Nle]RCSYSVECKQKCLAAIGSIFGKC[Nle]NKKCKCYPR-OH; disulfide 6-27, 12-32, 16-34)	0.739 nM		
CCCC[C@H](NC(=O)[C@@H]1CCCN1)C(=O)N[C@@H](CCC(=O)O)C(=O)N[C@@H](CCCC)C(=O)N[C@@H](CCCNC(=N)N)C(=O)N[C@H]1CSSC[C@@H]2NC(=O)[C@H](CCCCN)NC(=O)CNC(=O)[C@H](Cc3ccccc3)NC(=O)[C@H]([C@@H](C)CC)NC(=O)[C@H](CO)NC(=O)CNC(=O)[C@H]([C@@H](C)CC)NC(=O)[C@H](C)NC(=O)[C@H](C)NC(=O)[C@H](CC(C)C)NC(=O)[C@@H]3CSSC[C@@H](C(=O)N[C@@H](Cc4ccc(O)cc4)C(=O)N4CCC[C@H]4C(=O)N[C@@H](CCCNC(=N)N)C(=O)O)NC(=O)[C@H](CCCCN)NC(=O)[C@H](CSSC[C@H](NC(=O)[C@H](CCC(=O)O)NC(=O)[C@H](C(C)C)NC(=O)[C@H](Cc4ccccc4)NC(=O)[C@H](C)NC(=O)[C@H](CO)NC1=O)C(=O)N[C@@H](CCCCN)C(=O)N[C@@H](CCC(N)=O)C(=O)N[C@@H](CCCCN)C(=O)N3)NC(=O)[C@H](CCCCN)NC(=O)[C@H](CCCCN)NC(=O)[C@H](CC(N)=O)NC(=O)[C@H](CCCC)NC2=O [Compound 145] (H-P[Nle]E[Nle]RCSAFVECKQKCLAAIGSIFGKC[Nle]NKKCKCYPR-OH; disulfide 6-27, 12-32, 16-34)	8.26 nM		
H-NMDMRCSASVECKQKCLKAIGSIFGKCMNKKCKCYPRHRRK-NH2 (disulfide 6-27, 12-32, 16-34) [Compound 24]	0.073 nM		
